Measured values published in patent US20250304560A1, “MODULATORS OF NLRP3 INFLAMMASOME AND RELATED PRODUCTS AND METHODS” (Neumora Therapeutics, Inc., priority 2022, published 2025).
Like-named read-outs stand apart in the source and are kept apart here.

Tests used:
[1] = biological target: T1, hERG channels (Homo sapiens, UniProt Q12809); assay: hERG assay, whole-cell patch-clamp in CHO-hERG cells; format: cell-based; settings: for IC50: whole-cell patch-clamp, CHO-hERG cells
T1 construct: host or cells: CHO-hERG cells
Method: CHO-hERG cells (Sophion Biosciences (Ballerup, Denmark), subcultured and frozen in WuXi AppTec (Suzhou) Co., Ltd.), stored in liquid nitrogen, were tested and determined to be free from mycoplasma contamination. Cells were not used after the 30th passage. CHO-hERG cells were cultured in a humidified incubator of 5% CO2 (4% to 8%) in air at 37° C. (±2° C.). The cells were recovered with recovery medium (F12 medium with 10% fetal bovine serum), subcultured in complete medium (F12 medium, supplemented with 10% fetal bovine serum, 1% Geneticin® selective antibiotic (G418), 89 μg/mL Hygromycin B (HB)), and the culture medium was switched to recovery medium in the last subculture before patch-clamp experiment.
To determine the compounds' IC50, select compounds (“test articles”) were dissolved into DMSO, and then diluted with ECS to get working solutions. Five concentrations of 0.3, 1, 3, 10, and 30 μM were tested. Two replicate cells for each concentration were tested.
Exponentially growing CHO-hERG cells were collected and suspended in extracellular solution for use. The hERG current was recorded at physiological temperature (33.0° C. to 37.0° C.) using whole-cell patch-clamp techniques. Output signals from the patch-clamp amplifier were digitized and low-pass filtered at 2.9 KHz. The recording was controlled with Patchmaster Pro software. The recording chamber with seeded cells was mounted on an inverted microscope stage. A cell in the recording chamber was randomly selected for testing. The cell was continuously perfused from the perfusion system. A micropipette filled with ICS was used as recording electrode in the manual patch-clamp study. The micropipette was prepared on the day of the patch-clamp experiment using glass capillaries (BF150-117-10, SUTTER INSTRUMENT USA). The pipette resistance (Rp) was within 2 to 5 MΩ with ICS filled. From the holding potential of-80 mV, the voltage was increased to +60 mV for 850 ms to open the hERG channels. After that, the voltage was decreased to-50 mV for 1275 ms, causing a “rebound” or tail current, the peak tail current was measured and collected for data analysis. Finally, the voltage was decreased to the holding potential (−80 mV). This command voltage protocol was repeated every 15 s continuously during the test article application.
During the initial recording period with vehicle control working solution, the peak tail current amplitude was monitored until it had been stable for at least 3 sweeps. Cells were then perfused with test article/positive control working solutions until the peak tail current amplitude reached steady state. Steady state was considered reached when three consecutive super-imposable peak tail currents were collected. At this point, cells were once again perfused with next concentration of test article. One or more test articles/positive control or different concentrations of the same test article were tested on each cell with vehicle control washout until the current amplitude returned to values at least 80% of those measured before application of test article. […] At least 2 replicate cells for each concentration were tested. […] (Milnes, J. T., et al.)
Seal criteria: When acquiring whole-cell configuration, a holding potential (e.g.,-80 mV) was applied while membrane parameters were collected (Cm, Rm and Rs). A “good” whole-cell recording was generally defined as: series resistance (Rs) was less than 10 MΩ; membrane resistance (Rm) was more than 500 MΩ and membrane capacitance (Cm) was less than 100 pF. Current amplitude: The peak current amplitude must be between 400 pA and 5000 pA before the test article/positive control application; otherwise the cell was discarded. Leak criteria: At-80 mV holding potential, the absolute leak current value must be less than 200 pA. The amplitude of current was adjusted with leak current at-80 mV. The sweeps which absolute leak current value was more than 200 pA was not used in data analysis.

[2] = system: IL-6; assay: IL-6 AlphaLISA in LPS-primed THP1 macrophages; settings: for IC50: Homo sapiens
[3] = biological target: NLRP3 inflammasome (Homo sapiens, UniProt Q96P20); assay: NLRP3 inflammasome activation in THP1 macrophages, IL-1β AlphaLISA; settings: for IC50: THP1 macrophages
[4] = THP-1, read-out: IL-6 Activity (μM), THP1 macrophages, PMA, LPS priming, nigericin 6.7 uM
[5] = THP-1, read-out: IL-6 Activity, LPS-primed THP1 macrophages, Table 11 comparison
[6] = IL-1β Activity (nM), PMA, LPS priming, nigericin 6.7 uM activation
[7] = IL-1β Activity, Table 11 comparison

Sequence of NLRP3 inflammasome (Q96P20 whole entry): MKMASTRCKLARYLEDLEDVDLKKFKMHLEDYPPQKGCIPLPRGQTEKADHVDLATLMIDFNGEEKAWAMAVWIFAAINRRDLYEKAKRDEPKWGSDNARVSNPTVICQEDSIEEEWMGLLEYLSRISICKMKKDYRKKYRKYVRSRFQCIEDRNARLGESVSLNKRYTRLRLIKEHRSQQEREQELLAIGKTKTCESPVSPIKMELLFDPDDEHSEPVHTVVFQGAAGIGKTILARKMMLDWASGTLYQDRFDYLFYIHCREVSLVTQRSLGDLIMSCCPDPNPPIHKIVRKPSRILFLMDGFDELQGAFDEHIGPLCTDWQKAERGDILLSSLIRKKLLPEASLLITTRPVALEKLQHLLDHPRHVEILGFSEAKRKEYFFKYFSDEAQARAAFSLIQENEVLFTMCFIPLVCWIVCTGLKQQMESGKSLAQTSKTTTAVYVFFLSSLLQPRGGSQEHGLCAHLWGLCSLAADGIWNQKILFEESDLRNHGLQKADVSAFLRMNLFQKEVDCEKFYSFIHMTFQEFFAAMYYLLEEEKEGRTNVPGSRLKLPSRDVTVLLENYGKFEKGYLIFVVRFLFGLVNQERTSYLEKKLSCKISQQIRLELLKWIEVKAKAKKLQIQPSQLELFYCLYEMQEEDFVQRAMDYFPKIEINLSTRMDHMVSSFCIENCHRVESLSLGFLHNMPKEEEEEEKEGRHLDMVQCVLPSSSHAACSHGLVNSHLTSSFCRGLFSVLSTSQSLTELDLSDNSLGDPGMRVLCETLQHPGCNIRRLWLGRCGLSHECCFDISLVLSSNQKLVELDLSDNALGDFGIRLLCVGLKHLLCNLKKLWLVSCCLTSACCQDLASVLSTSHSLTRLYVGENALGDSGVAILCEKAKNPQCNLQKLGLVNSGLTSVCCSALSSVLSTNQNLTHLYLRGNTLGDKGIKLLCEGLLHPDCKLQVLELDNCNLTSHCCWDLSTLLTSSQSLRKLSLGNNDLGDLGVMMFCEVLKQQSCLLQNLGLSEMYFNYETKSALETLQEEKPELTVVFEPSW
T1 sequence (Q12809 whole entry): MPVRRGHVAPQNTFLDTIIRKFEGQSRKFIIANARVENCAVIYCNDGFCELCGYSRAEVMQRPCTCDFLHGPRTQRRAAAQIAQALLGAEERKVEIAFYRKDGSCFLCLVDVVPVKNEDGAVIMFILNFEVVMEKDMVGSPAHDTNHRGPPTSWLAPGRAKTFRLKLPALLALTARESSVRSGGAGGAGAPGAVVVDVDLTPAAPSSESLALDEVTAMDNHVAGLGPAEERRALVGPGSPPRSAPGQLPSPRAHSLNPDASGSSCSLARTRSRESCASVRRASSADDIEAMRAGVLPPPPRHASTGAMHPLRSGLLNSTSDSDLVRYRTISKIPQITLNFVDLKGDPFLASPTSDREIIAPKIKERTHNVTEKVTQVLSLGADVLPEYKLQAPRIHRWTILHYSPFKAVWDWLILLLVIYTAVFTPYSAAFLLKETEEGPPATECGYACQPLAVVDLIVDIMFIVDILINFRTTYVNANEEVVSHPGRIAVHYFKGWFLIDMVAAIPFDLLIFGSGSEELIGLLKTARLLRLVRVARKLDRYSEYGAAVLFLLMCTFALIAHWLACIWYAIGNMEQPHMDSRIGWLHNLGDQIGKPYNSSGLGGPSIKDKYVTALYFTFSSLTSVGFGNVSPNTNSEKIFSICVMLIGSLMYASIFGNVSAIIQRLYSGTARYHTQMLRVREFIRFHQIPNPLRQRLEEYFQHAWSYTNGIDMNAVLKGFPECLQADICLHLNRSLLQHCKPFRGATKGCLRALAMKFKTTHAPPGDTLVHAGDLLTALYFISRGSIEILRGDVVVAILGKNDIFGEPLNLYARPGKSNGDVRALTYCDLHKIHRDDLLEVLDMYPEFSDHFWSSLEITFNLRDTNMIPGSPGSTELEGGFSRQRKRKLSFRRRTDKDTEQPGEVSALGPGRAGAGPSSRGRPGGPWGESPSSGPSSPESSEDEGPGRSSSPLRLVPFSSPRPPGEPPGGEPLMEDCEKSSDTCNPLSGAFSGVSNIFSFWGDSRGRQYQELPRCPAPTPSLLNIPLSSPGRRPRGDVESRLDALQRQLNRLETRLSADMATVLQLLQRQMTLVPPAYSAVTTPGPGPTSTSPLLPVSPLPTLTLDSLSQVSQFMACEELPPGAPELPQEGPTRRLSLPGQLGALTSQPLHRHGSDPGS

Structure (SMILES) | hERG inhibition (in words) [1] | IC50 ([1]; 33.0-37.0 °C, Table 10) | IC50 ([1]; Table 11 comparison) | IL-6 activity (in words) [2] | IC50 [2, 4] | IC50 [2, 5] | IL-1ß activity (in words) [3] | IC50 [3, 6] | IC50 [3, 7]
Cc1cc(N[C@@H]2CCCN(C)C2)nnc1-c1ccc(C#N)cc1O [compound 51] | unexpectedly low | > 30 µM | > 30 µM | potent | 5 to 10 µM | 5 to 10 µM | potent | < 1 nM | < 1 nM
Cc1cc(N[C@@H]2CCCN(C)C2)nnc1-c1ccc(F)cc1O [compound 1] |  | 20 to 30 µM |  |  | < 1 µM |  |  | 1 to 10 nM | 
Cc1cc(F)cc(O)c1-c1ccc(N(C)[C@@H]2CCCN(C)C2)nn1 [compound 22] | unexpectedly low | > 30 µM | > 30 µM | potent | > 10 µM | > 10 µM | potent | 10 to 100 nM | 10 to 100 nM
